Experimental findings from patent US20110200708A1, “A COMPOSITION FOR ACTIVATING AND/OR STABILIZING MICRO-ORGANISMS” (priority 2008, published 2011) are described below.

Assay [1] concerns mesophilic lactic acid bacteria Strain 5. The following applies: 31° C. How it is done:
(§1) One litre of 2%-fat UHT milk was added to a previously sterilized 1200 ml fermentor vessel. Suspensions of yeast extract formulated with either iron pyrophosphate or iron sulfate were sterilized separately and added to the vessel to supply the milk with 0.02 wt % yeast extract and iron at a final amount of 2.4, 4.2 or 6 ppm.
(§2) Vessels were heated to 31° C., inoculated with freshly thawed culture concentrates and incubated for 7 hours under pH-control (pH between 5.9 and 6.1). After the incubation, the obtained starter culture was immediately cooled to a temperature below 8° C.
(§3) The obtained starter culture was tested for acidification activity by inoculating cold 2%-fat UHT-pasteurised milk with 3.0% (v/v) of the culture, incubating the inoculated milk for 2.5 hours at 31° C., and then measuring the change in pH of the milk versus non-inoculated milk. The experiment was done for five different mesophilic lactic acid bacteria strains.

Assay [2] concerns mesophilic lactic acid bacteria Strain 4. The following applies: 31° C. As for the experimental part: as §1, §2, §3
Assay [3] concerns mesophilic lactic acid bacteria Strain 3. As to conditions: 31° C. How it is done: as §1, §2, §3
A further assay deals with strain 6. Kind of assay: Acidification activity of strain 6 bulk starter cultures at different iron and manganese concentrations. Type of assay: cell-based, mesophilic lactic acid bacteria. How it is done:
The strains were fermented in sterilized production medium in a standard fermentation vessel. The fermentation was carried out by maintaining the pH between 6-6.5 with ammonia at a temperature of about 30° C. The culture was harvested after ammonia consumption was stabilized. The culture was cooled to a temperature of below 10° C. and centrifuged. A concentration factor (harvested broth over pellet volume) of 15-20 was obtained. The obtained concentrate was used for further testing, e.g. with the cell concentrates a series of bulk starter culture fermentations was performed. […] The bulk starter culture was prepared by fermenting the milk during 6 hours at 30° C. under pH-stat conditions. Ammonia was used to maintain the pH at 6.0-6.2. Samples (1.5 ml) of the cultures were taken after 5 and 6 hours fermentation. The samples were tested to establish the acidification activity of the culture under standard conditions. […] Several different final iron and manganese concentrations were used in this experiment. The bulk starter culture was prepared as described above with the proviso that the UHT milk was inoculated with 0.6 wt % cell concentrate.

The test system of assay [4] is mesophilic lactic acid bacteria Strain 1. As to conditions: 31° C., in the absence of iron 1.18. As for the experimental part:
as §1, §2, §3

Assay [5] has as its system mesophilic lactic acid bacteria Strain 2. As to conditions: 31° C., in the absence of iron 1.44. How it is done: as §1, §2, §3
In assay [6] the test system is mesophilic lactic acid bacteria Strain 9. Briefly: Acidification activity of bulk starter cultures with yeast extract, iron, manganese and/or molybdate, Strain 9. Type of assay: cell-based. The following applies: YE 0.02 wt %, Fe, Mn, Mo 8 ppm each. How it is done: (§4) The strains were fermented in sterilized production medium in a standard fermentation vessel. The fermentation was carried out by maintaining the pH between 6-6.5 with ammonia at a temperature of about 30° C. The culture was harvested after ammonia consumption was stabilized. The culture was cooled to a temperature of below 10° C. and centrifuged. A concentration factor (harvested broth over pellet volume) of 15-20 was obtained. The obtained concentrate was used for further testing, e.g. with the cell concentrates a series of bulk starter culture fermentations was performed. […] The bulk starter culture was prepared by fermenting the milk during 6 hours at 30° C. under pH-stat conditions. Ammonia was used to maintain the pH at 6.0-6.2. Samples (1.5 ml) of the cultures were taken after 5 and 6 hours fermentation. The samples were tested to establish the acidification activity of the culture under standard conditions. […] The strains were fermented as described in Example 6. The bulk starter cultures were prepared as described in Example 6 with the proviso that the UHT milk was inoculated with 0.6 wt % cell concentrate. Acid production was measured as described in Example 6 with the proviso that 6 gram sample was taken from the cultures after 5 and 6 hours and added to 200 g UHT milk. The experiment was done with two different strains.

For assay [7], the system named is mesophilic lactic acid bacteria Strain 8. Briefly: Acidification activity of bulk starter cultures with yeast extract, iron, manganese and/or molybdate, Strain 8. As to conditions: YE 0.02 wt %, Fe, Mn, Mo 8 ppm each. Type of assay: cell-based. How it is done: as §4
Setting [8] is: Strain 5, 2.4 ppm iron + 0.02 wt % yeast extract.
[9] abbreviates: Strain 5, 4.2 ppm iron + 0.02 wt % yeast extract.
[10] abbreviates: Strain 5, 6.0 ppm iron + 0.02 wt % yeast extract.
[11] abbreviates: Strain 4, 2.4 ppm iron + 0.02 wt % yeast extract.
The mark [12] stands for this setting: Strain 4, 4.2 ppm iron + 0.02 wt % yeast extract.
[13] abbreviates: Strain 4, 6.0 ppm iron + 0.02 wt % yeast extract.
[14] abbreviates: Strain 3, 2.4 ppm iron + 0.02 wt % yeast extract.
The mark [15] stands for this setting: Strain 3, 4.2 ppm iron + 0.02 wt % yeast extract.
The mark [16] stands for this setting: Strain 3, 6.0 ppm iron + 0.02 wt % yeast extract.

Values joined by “and” are separate entries in the source; they are usually repeats but may differ in a detail not shown here. Equal entries are not always repeated. Where two headings read alike, the source gives them in different places.

For the compound `O=P([O-])([O-])OP(=O)([O-])[O-].O=P([O-])([O-])OP(=O)([O-])[O-].O=P([O-])([O-])OP(=O)([O-])[O-].[Fe+3].[Fe+3].[Fe+3].[Fe+3]` [Iron pyrophosphate, iron pyrophosphate], the Acidification activity was 1.25 ΔpH/2.5 h in assay [1] (setting [8]); 1.32 ΔpH/2.5 h in assay [1] (setting [9]); 1.33 ΔpH/2.5 h in assay [1] (setting [10]); 1.48 ΔpH/2.5 h in assay [2] (setting [11]); 1.56 ΔpH/2.5 h in assay [2] (setting [12]); 1.58 ΔpH/2.5 h in assay [2] (setting [13]). For the same compound, the Acidification activity in assay [3] (setting [14]) is 1.45 ΔpH/2.5 h; in assay [3] (setting [15]) it was 1.48 ΔpH/2.5 h; in assay [3] (setting [16]), 1.50 ΔpH/2.5 h.
Take `O=S(=O)([O-])[O-].[Fe+2]` [Iron sulphate, iron sulphate]: the “Acidification activity of bulk starter culture” value in the assay with strain 6 is 1.67 ΔpH/2.5 h and 1.66 ΔpH/2.5 h. Further, the Acidification activity is 1.47 ΔpH/2.5 h in assay [4] (Strain 1, 2.4 ppm iron + 0.02 wt % yeast extract); 1.53 ΔpH/2.5 h in assay [4] (Strain 1, 6.0 ppm iron + 0.02 wt % yeast extract); 1.29 ΔpH/2.5 h in assay [1] (setting [8]); 1.33 ΔpH/2.5 h in assay [1] (setting [9]); 1.35 ΔpH/2.5 h in assay [1] (setting [10]); 1.54 ΔpH/2.5 h in assay [2] (setting [11]). The Acidification activity in assay [2] (setting [12]) was 1.56 ΔpH/2.5 h; in assay [2] (setting [13]), 1.57 ΔpH/2.5 h; in assay [5] (Strain 2, 2.4 ppm iron + 0.02 wt % yeast extract), 1.77 ΔpH/2.5 h; in assay [5] (Strain 2, 6.0 ppm iron + 0.02 wt % yeast extract) it was 1.71 ΔpH/2.5 h; in assay [3] (setting [14]) it was 1.49 ΔpH/2.5 h; in assay [3] (setting [15]) it was 1.49 ΔpH/2.5 h. The Acidification activity in assay [3] (setting [16]) was 1.51 ΔpH/2.5 h.
With `O=S(=O)([O-])[O-].[Mn+2]` [M, manganese sulphate], in the assay on strain 6 (strain 6, Fe 0 ppm, Mn 2.4 ppm, 7 hours, 0/0 ppm 1.61), the “Acidification activity of bulk starter culture” value is 1.65 ΔpH/2.5 h.
As for `[Na+].[Na+].[O]=[Mo](=[O])([O-])[O-]` [Mo, sodium molybdate], the “Acidification activity of bulk starter culture” value in assay [6] (Strain 9, 5 hours, no addition 0.33) is listed as 0.55 ΔpH/2.5 h; in assay [6] (Strain 9, 6 hours, no addition 0.43), 0.79 ΔpH/2.5 h; in assay [7] (Strain 8, 5 hours, no addition 0.64), 0.73 ΔpH/2.5 h; in assay [7] (Strain 8, 6 hours, no addition 1.08), 1.04 ΔpH/2.5 h.
